Measurements from ChEMBL document CHEMBL1201862, “PubChem BioAssay data set” (2004).
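Exposure lasted 48 hours, with cells grown in 96-well plates and compounds tested at five concentrations. GI50 marks 50% less growth.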 Activity calls are given as the source filed them. No stated cut-off is given here; in the data, active = GI50 up to about 1.1 µM and inactive = higher.

Experiments:
Test in all cases: DTP human tumour cell line panel, 48 h
SF-268 = system: SF-268
TK-10 = system: TK-10
SR = system: SR
DU-145 = system: DU-145
SF-295 = system: SF-295
PC-3 = system: PC-3
K562 = system: K562
U-251 = system: U-251
RPMI-8226 = system: RPMI-8226
NCI-H23 = system: NCI-H23
CAKI-1 = system: CAKI-1
UACC-62 = system: UACC-62
SNB-75 = system: SNB-75
LOX IMVI = system: LOX IMVI
MDA-N = system: MDA-N
SNB-19 = system: SNB-19
786-0 = system: 786-0
HCT-116 = system: HCT-116
BT-549 = system: BT-549

Measured: GI50

c1cc2c(cc1C(N1CCNCC1)N1CCNCC1)OCO2
inactive: SF-268 > 100 µM | TK-10 > 100 µM | SR 9.64 µM | DU-145 > 100 µM | SF-295 > 100 µM | PC-3 > 100 µM | K562 2.42 µM | U-251 > 100 µM | RPMI-8226 40.9 µM | NCI-H23 > 100 µM | CAKI-1 > 100 µM | UACC-62 > 100 µM | SNB-75 > 100 µM | LOX IMVI > 100 µM | MDA-N > 100 µM | SNB-19 > 100 µM | 786-0 > 100 µM | HCT-116 > 100 µM | BT-549 > 100 µM

Cc1cn(C(Cc2ccccc2)OCCO)c(=O)[nH]c1=O (stereo not given)
inactive: SR > 100 µM | DU-145 > 100 µM | SF-295 > 100 µM | PC-3 > 100 µM | K562 > 100 µM | U-251 > 100 µM | RPMI-8226 > 100 µM | NCI-H23 > 100 µM | CAKI-1 > 100 µM | UACC-62 > 100 µM | SNB-75 > 100 µM | LOX IMVI > 100 µM | MDA-N > 100 µM | SNB-19 > 100 µM | 786-0 > 100 µM | HCT-116 > 100 µM | BT-549 > 100 µM

Cc1cc2[nH]c(=NS(=O)(=O)c3cc(C)c(Cl)cc3S)[nH]c2cc1C
inactive: SF-268 83.8 µM | TK-10 > 100 µM | SR 19.4 µM | DU-145 > 100 µM | SF-295 53.8 µM | PC-3 66.4 µM | K562 59.7 µM | U-251 36.2 µM | RPMI-8226 45.9 µM | NCI-H23 > 100 µM | CAKI-1 > 100 µM | UACC-62 > 100 µM | SNB-75 > 100 µM | LOX IMVI 28.9 µM | MDA-N > 100 µM | SNB-19 56.6 µM | 786-0 61.7 µM | HCT-116 51.4 µM | BT-549 > 100 µM

O=C1c2ccccc2CC12Cc1ccccc1C2
inactive: SF-268 48 µM | TK-10 21.9 µM | SR 6.12 µM | DU-145 86.3 µM | SF-295 > 100 µM | PC-3 42 µM | K562 34.8 µM | U-251 60.7 µM | RPMI-8226 31.7 µM | NCI-H23 > 100 µM | CAKI-1 48.3 µM | UACC-62 > 100 µM | SNB-75 18.2 µM | LOX IMVI 35.8 µM | MDA-N 56.4 µM | SNB-19 > 100 µM | 786-0 36 µM | HCT-116 44.1 µM | BT-549 83.2 µM

Cc1ccc([N+](=O)[O-])cc1S(=O)(=O)Nc1ccc(C2=NN(c3ccc([N+](=O)[O-])cc3[N+](=O)[O-])C(c3ccccc3O)C2)cc1 (stereo not given)
inactive: SF-268 35.6 µM | TK-10 43.7 µM | SR 27.2 µM | DU-145 39.1 µM | SF-295 29.9 µM | PC-3 36.4 µM | K562 21.8 µM | U-251 37.1 µM | RPMI-8226 49.1 µM | NCI-H23 19.6 µM | CAKI-1 33.8 µM | SNB-75 40.4 µM | LOX IMVI 42 µM | MDA-N 29.3 µM | SNB-19 47.1 µM | 786-0 39.8 µM | HCT-116 29 µM | BT-549 28.2 µM

CN/N=C(\C)C(CN(C)C)C(c1ccccc1)c1c(O)c2ccccc2oc1=O (stereo not given)
inactive: SF-268 > 100 µM | TK-10 > 100 µM | SR 67.9 µM | DU-145 > 100 µM | SF-295 > 100 µM | PC-3 > 100 µM | K562 > 100 µM | U-251 > 100 µM | RPMI-8226 42 µM | NCI-H23 > 100 µM | CAKI-1 > 100 µM | UACC-62 31.3 µM | SNB-75 > 100 µM | LOX IMVI > 100 µM | MDA-N > 100 µM | SNB-19 > 100 µM | 786-0 > 100 µM | HCT-116 > 100 µM | BT-549 24.3 µM

CC(NS(C)(=O)=O)c1ccccc1 (stereo not given)
inactive: TK-10 > 100 µM | SR > 100 µM | DU-145 > 100 µM | SF-295 > 100 µM | PC-3 > 100 µM | K562 > 100 µM | U-251 > 100 µM | RPMI-8226 > 100 µM | NCI-H23 > 100 µM | CAKI-1 > 100 µM | UACC-62 > 100 µM | SNB-75 > 100 µM | LOX IMVI > 100 µM | MDA-N > 100 µM | SNB-19 > 100 µM | 786-0 > 100 µM | HCT-116 > 100 µM | BT-549 > 100 µM

C=C1C(=O)OC2/C=C(/C)C(OC(C)=O)CC(O)/C(C)=C\C(OC(=O)/C(C)=C\C)C12 (stereo not given)
inactive: SF-268 > 100 µM | TK-10 > 100 µM | SR 26.7 µM | DU-145 53.8 µM | SF-295 > 100 µM | PC-3 > 100 µM | K562 35.2 µM | U-251 > 100 µM | RPMI-8226 38.7 µM | NCI-H23 > 100 µM | CAKI-1 30.5 µM | UACC-62 > 100 µM | SNB-75 > 100 µM | LOX IMVI 28.5 µM | MDA-N 48.1 µM | SNB-19 > 100 µM | 786-0 17.1 µM | HCT-116 18.2 µM | BT-549 53.5 µM

CNCCCNC1(c2cc3ccccc3s2)CCCCC1
inactive: SF-268 11.3 µM | TK-10 6.31 µM | SR 1.52 µM | DU-145 11.9 µM | SF-295 14.2 µM | PC-3 9.44 µM | K562 1.98 µM | U-251 4.65 µM | RPMI-8226 2.04 µM | NCI-H23 16.4 µM | CAKI-1 10.1 µM | UACC-62 1.94 µM | SNB-75 6.17 µM | LOX IMVI 2.79 µM | MDA-N 2.2 µM | SNB-19 12.1 µM | 786-0 3.47 µM | HCT-116 3.56 µM | BT-549 14.6 µM

OCC1C2CCC3(OCCO3)C12 (stereo not given)
inactive: SF-268 > 100 µM | TK-10 > 100 µM | SR > 100 µM | DU-145 > 100 µM | SF-295 > 100 µM | PC-3 > 100 µM | K562 > 100 µM | U-251 > 100 µM | RPMI-8226 > 100 µM | NCI-H23 18.2 µM | CAKI-1 > 100 µM | UACC-62 17.6 µM | SNB-75 > 100 µM | LOX IMVI > 100 µM | MDA-N > 100 µM | SNB-19 > 100 µM | 786-0 > 100 µM | HCT-116 > 100 µM | BT-549 20.6 µM

CNC(=S)N/N=C/c1cccc(C)n1
inactive: SF-268 25.9 µM | TK-10 32.8 µM | SR > 41.9 µM | DU-145 28.8 µM | SF-295 32.7 µM | PC-3 42 µM | K562 42.8 µM | U-251 26.1 µM | RPMI-8226 > 59.8 µM | NCI-H23 31.4 µM | CAKI-1 47.6 µM | UACC-62 23.6 µM | SNB-75 37.9 µM | LOX IMVI 24.7 µM | MDA-N 42 µM | SNB-19 51.9 µM | 786-0 24.6 µM | HCT-116 31.6 µM | BT-549 23.5 µM
